In general, inhibition refers to the percentage by which the read-out fell short of the control. A high value points to a response far below the control. The Ki is a measure of affinity in units of concentration, obtained from inhibition or displacement.

Read-outs that look alike come from different tables or passages of the source.

For assay [1], the target named is T1, CB1 receptor (Homo sapiens, UniProt P21554). The assay is described as follows: cAMP Assay #2: Hit Hunter cAMP assay, Gi-coupled agonist activity, CB1. Format: cell-based. Also on record: host or cells: PathHunter cell lines. On the technique in general: Cyclic AMP is a second messenger, typically raised through Gs and lowered through Gi signalling.
T1 sequence (P21554 whole entry): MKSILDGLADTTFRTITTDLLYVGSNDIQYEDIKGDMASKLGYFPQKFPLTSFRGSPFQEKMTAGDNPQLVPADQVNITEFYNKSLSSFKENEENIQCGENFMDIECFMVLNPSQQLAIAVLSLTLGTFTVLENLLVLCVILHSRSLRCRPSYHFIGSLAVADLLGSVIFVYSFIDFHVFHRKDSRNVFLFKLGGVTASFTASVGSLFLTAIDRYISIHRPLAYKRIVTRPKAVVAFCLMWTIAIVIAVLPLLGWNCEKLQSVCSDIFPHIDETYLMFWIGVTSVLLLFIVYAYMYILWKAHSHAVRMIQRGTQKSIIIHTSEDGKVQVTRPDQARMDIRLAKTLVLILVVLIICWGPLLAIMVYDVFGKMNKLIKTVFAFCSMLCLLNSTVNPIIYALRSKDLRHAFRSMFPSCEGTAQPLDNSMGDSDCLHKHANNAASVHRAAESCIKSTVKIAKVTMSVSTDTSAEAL
For assay [2], the target named is T1, CB1 receptor. The assay can be described thus: cell-based. Also on record: host or cells: PathHunter cell lines.
Assay [3] addresses T2, CB2 receptor (Homo sapiens, UniProt P34972). The assay is described as follows: cAMP Assay #2: Hit Hunter cAMP assay, Gi-coupled agonist activity, CB2. Format: cell-based. Also on record: host or cells: cAMP Hunter cell lines. To be noted: for CB2 fold selectivity: CB1 EC50 / CB2 EC50.
For assay [4], the target named is T2, CB2 receptor. The assay is described as follows: cell-based. Also on record: host or cells: cAMP Hunter cell lines. In a few lines:
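PathHunter β-Arrestin enzyme fragment complementation cells, EA-tagged β-Arrestin and PK-tagged receptor, exposed to compound for 90 to 180 minutes at 37° C. or room temperature, 1% vehicle. Chemiluminescence read 1 h after detection reagent; agonist % activity relative to vehicle and MAX control ligand.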

In assay [5] the target is T1, CB1 receptor. The assay is described as follows: cAMP Assay #1: CB1 adenylylcyclase assay in CHO cells. Format: cell-based. Further details: expressed in transfected cells; host or cells: CHO cells. As for the experimental part: (§1) Compounds of the invention were assayed in an adenylylcyclase assay to determine agonist activity on the CB1 and CB2 receptors, the results of which are provided in Table 4. Exemplary methods for the adenylylcyclase assay can be found in the literature, for example, in Rhee, M-H., et al. Cannabinol Derivatives: Binding to Cannabinoid Receptors and Inhibition of Adenylylcyclase. J Med Chem. 40: 3228-3233 (1997).
CB1 Activity as determined by Adenylylcyclase Assay: CB1 receptor agonist activity was measured by measuring cAMP production. A compound of the invention was incubated with CHO cells expressing human recombinant CB1 for 20 minutes at 37° C.
(§2) Determination of EC50 values: The EC50 values (concentration producing a half-maximal response) were determined by non-linear regression analysis of the concentration-response curves generated with mean replicate values using Hill equation curve fitting: Y=D+[(A−D)/(1+(C/C50)^nH)], where Y=response, A=left asymptote of the curve, D=right asymptote of the curve, C=compound concentration, and C50=EC50, and nH=slope factor. This analysis was performed using software developed at Cerep (Hill software) and validated by comparison with data generated by the commercial software SigmaPlot® 4.0 for Windows® (© 1997 by SPSS Inc.).

The target of assay [6] is T2, CB2 receptor. The assay is described as follows: cAMP Assay #1: CB2 adenylylcyclase assay in CHO cells. Format: cell-based. Also on record: expressed in transfected cells; host or cells: CHO cells. As for the experimental part: as §1
CB2 Activity as determined by Adenylylcyclase Assay: CB2 receptor agonist activity was measured by measuring cAMP production. A compound of the invention was incubated with CHO cells expressing human recombinant CB2 for 10 minutes at 37° C.
as §2

In assay [7] the target is T1, CB1 receptor. The assay is described as follows: CB1 competitive radioligand binding assay ([3H] SR141716A). Also on record: expressed in transfected cells; host or cells: Chem-1 cells. To be noted: for inhibition at 0.5 µM: 0.5 μM compound, 2.0 nM [3H] SR141716A, 90 min 37° C. The method, boiled down:
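Chem-1 cells expressing human recombinant CB1 incubated 90 min at 37° C with 2.0 nM [3H]SR141716A and compound at 0.5 μM (1% DMSO) in HEPES pH 7.4 buffer with MgCl2, CaCl2, 0.2% BSA. Read-out is % inhibition of radioligand binding.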

The target of assay [8] is T2, CB2 receptor. The assay can be described thus: CB2 competitive radioligand binding assay ([3H] WIN-55,212-2). Further details: expressed in transfected cells; host or cells: CHO-K1 cells. Conditions: for inhibition at 0.05 µM: 0.05 μM compound, 2.4 nM [3H] WIN-55,212-2, 90 min 37° C. In a few lines: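 Single-concentration displacement: 2.4 nM [3H]WIN-55,212-2 competed with 0.05 μM compound (1% DMSO) for 90 min at 37 °C on human CB2 expressed in CHO-K1 cells (HEPES 20 mM, pH 7.0, 0.5% BSA). Result given as % inhibition of bound radioligand.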

The test system of assay [9] is 12 systems of human primary cells. The assay is described as follows: BioMAP Diversity PLUS phenotypic screen. Format: cell-based. Conditions: 3.3 μM; changes at least 1.5-fold from vehicle control. As for the experimental part: Compounds of the invention were assayed for their effects on 148 biomarkers of inflammation, immune modulation and tissue remodeling in the BioMAP® Diversity PLUS® (DiscoverX) platform designed to model aspects of human diseases in vitro (Kunkel 2004, Berg 2006, Melton 2013).
The example compounds (3.3 μM) in Table 8 induced increases or decreases in the levels of the indicated 20 biomarkers, which are at least 1.5-fold change from vehicle control and are outside the significance prediction envelop. All compounds presented in Table 8 were not cytotoxic at the concentration tested.

Setting [10] is: Hit Hunter cAMP, 20 μM forskolin, control ligand CP55,940, read-out: CB1, EC50.
The mark [11] stands for this setting: PathHunter agonist mode, read-out: CB1 Activity (β-Arrestin).
The mark [12] stands for this setting: Hit Hunter cAMP, 25 μM forskolin, control ligand CP55,940, read-out: CB2, EC50.
Where [13] appears, read: PathHunter agonist mode, read-out: CB2 Activity (β-Arrestin).
Where [14] appears, read: CHO cells, 20 min 37° C., relative to 10 nM CP 55940, read-out: CB1 Activity EC50 (cAMP).
Where [15] appears, read: CHO cells, 10 min 37° C., relative to 100 nM WIN 55212-2, read-out: CB2 Activity EC50 (cAMP).
[16] abbreviates: Table 2, read-out: CB1 Binding Ki.
[17] abbreviates: Table 2, read-out: CB2 Binding Ki.

T2 sequence (P34972 whole entry): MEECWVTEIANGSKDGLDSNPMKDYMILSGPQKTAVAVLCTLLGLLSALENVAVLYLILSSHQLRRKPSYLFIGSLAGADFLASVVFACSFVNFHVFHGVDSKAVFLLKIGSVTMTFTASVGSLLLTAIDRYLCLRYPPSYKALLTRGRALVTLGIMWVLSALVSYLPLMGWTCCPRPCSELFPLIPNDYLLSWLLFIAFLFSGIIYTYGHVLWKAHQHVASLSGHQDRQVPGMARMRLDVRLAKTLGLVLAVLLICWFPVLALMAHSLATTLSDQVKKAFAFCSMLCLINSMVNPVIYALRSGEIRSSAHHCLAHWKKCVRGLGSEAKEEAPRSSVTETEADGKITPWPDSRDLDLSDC

As to `CCCCCCC(C)(C)c1cc(O)c2c(c1)OC(C)(C)[C@@H]1CC=C(C(=O)N[C@H](C)CCO)C[C@@H]21` [Compound 14, (6aR,10aR)-1-Hydroxy-N—((R)-4-hydroxybutan-2-yl)-6,6-dimethyl-3-(2-methyloctan-2-yl)-6a,7,10,10a-tetrahydro-6H-benzo[c]chromene-9-carboxamide], the EC50 in assay [1] (setting [10]) was 470 nM; in assay [2] (setting [11]), above 3000 nM; in assay [3] (setting [12]) it was 4.1 nM; in assay [4] (setting [13]), 8 nM; in assay [5] (setting [14]), 10 nM; in [6] (setting [15]), 9.7 nM. The compound further returned a CB2 fold selectivity in assay [3] (Hit Hunter cAMP) of 115.2. Moreover, testing at 0.5 µM in [7] gave an inhibition of 25%. Further, the Ki in [7] (setting [16]) stood at 1230 nM; in assay [8] (setting [17]), 56 nM. This compound also displayed an inhibition at 0.05 µM in assay [8] of 47%. For the same compound, the “Fold Selectivity (CB1/CB2)” value in assay [8] (Table 2, ratio of Ki CB1/CB2) is listed as 22.
In the case of `CCCCCCC(C)(C)c1cc(O)c2c(c1)OC(C)(C)[C@@H]1CC=C(C(=O)NC(C)=N)C[C@@H]21` [Compound 94, (6aR,10aR)-1-hydroxy-N-(1-iminoethyl)-6,6-dimethyl-3-(2-methyloctan-2-yl)-6a,7,10,10a-tetrahydro-6H-benzo[c]chromene-9-carboxamide], in assay [9], the “Immune modulation, cell surface and tissue remodeling biomarkers” value (“Immune modulation” below) is “Reduced MCP-1 and CD69; increased IL-1α”. The EC50 stood at 7.9 nM in assay [1], 94.9 nM in assay [2], 6.3 nM in [3] and 4.3 nM in assay [4]. In assay [3] (Hit Hunter cAMP), this compound displayed a CB2 fold selectivity of 1.3. For the same compound, the results for the inhibition constant Ki in assay [7] and in [8] were 18.8 nM and 12.6 nM, respectively. Moreover, the “Fold Selectivity (CB1/CB2)” value in assay [8] (Table 3, ratio of Ki CB1/CB2) came out at 1.5.
For the compound `CCCCCCC(C)(C)c1cc(O)c2c(c1)OC(C)(C)[C@@H]1CC=C(C(=O)NC3CCC3)C[C@@H]21` [Compound 44, (6aR,10aR)-N-cyclobutyl-1-hydroxy-6,6-dimethyl-3-(2-methyloctan-2-yl)-6a,7,10,10a-tetrahydro-6H-benzo[c]chromene-9-carboxamide], the “Immune modulation” value in assay [9] was “Reduced MCP-1, P-selectin, and IL-1α”. Besides, the EC50 came to 11.1 nM in [2] (setting [11]) and 1.6 nM in assay [4] (setting [13]). Besides, the results for the Ki in assay [7] and in assay [8] were 33.5 nM and 2.4 nM, respectively. Further, in assay [8] (Table 3, ratio of Ki CB1/CB2), the “Fold Selectivity (CB1/CB2)” value turned out to be 14.0.
Turning to `CCCCCCC(C)(C)c1cc(O)c2c(c1)OC(C)(C)[C@@H]1CC=C(C(=O)NCCCO)C[C@@H]21` [Compound 13, (6aR,10aR)-1-Hydroxy-N-(3-hydroxypropyl)-6,6-dimethyl-3-(2-methyloctan-2-yl)-6a,7,10,10a-tetrahydro-6H-benzo[c]chromene-9-carboxamide], the EC50 worked out at 66.2 nM in assay [1] (setting [10]); 787 nM in [2] (setting [11]); 2.5 nM in assay [3] (setting [12]); 807 nM in assay [4] (setting [13]); 4.6 nM in assay [5] (setting [14]); 3.1 nM in [6] (setting [15]). In addition, in assay [3] (Hit Hunter cAMP), the CB2 fold selectivity came to 26.5. At 0.5 µM the inhibition in [7] was 49%. In addition, the Ki amounted to 420 nM in assay [7] (setting [16]) and 12.4 nM in assay [8] (setting [17]). Further, testing at 0.05 µM in assay [8] gave an inhibition of 68%. Further, in assay [8] (Table 2, ratio of Ki CB1/CB2), the “Fold Selectivity (CB1/CB2)” value is on record as 34.
As to `CCCCCCC(C)(C)c1cc(O)c2c(c1)OC(C)(C)[C@@H]1CC=C(C(=O)NCC(O)CO)C[C@@H]21` (stereo partly drawn) [Compound 24, (6aR,10aR)-N-(2,3-Dihydroxypropyl)-1-hydroxy-6,6-dimethyl-3-(2-methyloctan-2-yl)-6a,7,10,10a-tetrahydro-6H-benzo[c]chromene-9-carboxamide], the EC50 was 223 nM in [1] (setting [10]); above 3000 nM in assay [2] (setting [11]); 3.5 nM in assay [3] (setting [12]); 2 nM in assay [4] (setting [13]); 13 nM in assay [5] (setting [14]); 2.4 nM in assay [6] (setting [15]). Moreover, the CB2 fold selectivity in assay [3] (Hit Hunter cAMP) is listed as 63.5. The same compound showed an inhibition at 0.5 µM in assay [7] of 44%. For the same compound, the Ki in assay [7] (setting [16]) is 1930 nM; in assay [8] (setting [17]), 55 nM. In assay [8], this compound returned an inhibition at 0.05 µM of 60%. Also, in assay [8] (Table 2, ratio of Ki CB1/CB2), the “Fold Selectivity (CB1/CB2)” value was determined as 35.
Regarding `CCCCCCC(C)(C)c1cc(O)c2c(c1)OC(C)(C)[C@@H]1CC=C(C(=O)NCCO)C[C@@H]21` [Compound 5, (6aR,10aR)-1-Hydroxy-N-(2-hydroxyethyl)-6,6-dimethyl-3-(2-methyloctan-2-yl)-6a,7,10,10a-tetrahydro-6H-benzo[c]chromene-9-carboxamide], the EC50 in [1] was 32.2 nM; in [2] (setting [11]), 620 nM; in assay [3], 3.9 nM; in assay [4] (setting [13]), 520 nM; in [5], below 3 nM; in [6], 3.3 nM. Further, the CB2 fold selectivity in assay [3] (Hit Hunter cAMP) is 8.2. The figures for the Ki in assay [7] and in assay [8] were 350 nM and 28 nM, respectively. For the same compound, the inhibition at 0.5 µM in [7] stood at 49%. Also, testing at 0.05 µM in assay [8] gave an inhibition of 57%. In addition, the “Fold Selectivity (CB1/CB2)” value in [8] (Table 2, ratio of Ki CB1/CB2) is given as 12.6.
Turning to `CCCCCCC(C)(C)c1cc(O)c2c(c1)OC(C)(C)[C@@H]1CC=C(C(=O)N3CCCCC3)C[C@@H]21` [Compound 93, ((6aR,10aR)-1-hydroxy-6,6-dimethyl-3-(2-methyloctan-2-yl)-6a,7,10,10a-tetrahydro-6H-benzo[c]chromen-9-yl)(piperidin-1-yl)methanone], the “Immune modulation” value in assay [9] was “Reduced Eotaxin-3, P-selectin, CD69, and M-CSF; increased IL-6”. For the same compound, the values for the EC50 in assay [2] and in [4] (setting [13]) were above 3000 nM and 3.1 nM, respectively. Besides, the Ki came out at 243 nM in assay [7] and 31.9 nM in assay [8]. In addition, the “Fold Selectivity (CB1/CB2)” value in [8] (Table 3, ratio of Ki CB1/CB2) amounted to 7.6.
As to `CCCCCCC(C)(C)c1cc(O)c2c(c1)OC(C)(C)[C@@H]1CC=C(C(=O)NC3CC3)C[C@@H]21` [Compound 6, (6aR,10aR)—N-Cyclopropyl-1-hydroxy-6,6-dimethyl-3-(2-methyloctan-2-yl)-6a,7,10,10a-tetrahydro-6H-benzo[c]chromene-9-carboxamide], the EC50 is 4.7 nM in assay [1]; 160 nM in assay [2] (setting [11]); 0.8 nM in assay [3]; 210 nM in assay [4] (setting [13]); below 3 nM in [5]; below 3 nM in assay [6]. This compound returned a CB2 fold selectivity in [3] (Hit Hunter cAMP) of 6.0. Besides, the Ki was determined as 45 nM in [7] and 3.9 nM in assay [8]. In [7], 0.5 µM produced 64% inhibition. Testing at 0.05 µM in assay [8] gave an inhibition of 98%. For the same compound, the “Fold Selectivity (CB1/CB2)” value in assay [8] (Table 2, ratio of Ki CB1/CB2) stood at 12.

These data come from US20210284621A1 (priority 2018, published 2021).
